Source: patent US20200017495A1, “NOVEL HETEROCYCLIC COMPOUNDS AND THEIR USE IN PREVENTING OR TREATING BACTERIAL INFECTIONS” (priority 2017, published 2020)
Like-named read-outs stand apart in the source and are kept apart here.

How the values were obtained:
[1] = system: Escherichia coli (ECO) isolates; test: MIC of compounds alone and combined with antibacterials, broth microdilution (CLSI); assay type: cell-based; settings: Escherichia coli, read-out: MIC
Procedure, shortened: (§1)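 Broth microdilution in cation-adjusted Mueller-Hinton broth, inoculum 5.10^5 CFU/mL, 16-20 h at 35° C in ambient air, on genotyped isolates. Compound MIC, alone or with an antibacterial, taken visually as lowest concentration preventing growth; antibacterial MIC determined at each compound concentration.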

[2] = system: Klebsiella pneumoniae (KPN) isolates; test: as above; assay type: cell-based; settings: Klebsiella pneumoniae, read-out: MIC
Procedure, shortened: as §1

## O=C1N2CC(c3ncco3)=CC(C2)N1OC(F)(F)C(=O)[O-].[Li+] (centres unmarked) [AF2]
[1]; ECO 4133, alone
  MIC: 8 µg/mL
[1]; ECO 5302, alone
  MIC: 4 µg/mL
[1]; ECO 131119, alone
  MIC: 4 µg/mL
[1]; ECO 180070, alone
  MIC: 8 µg/mL
[1]; ECO 190314, alone
  MIC: 8 µg/mL
[1]; ECO 190317, alone
  MIC: 4 µg/mL
[1]; ECO 190457, alone
  MIC: 4 µg/mL
[1]; ECO 190549, alone
  MIC: 4 µg/mL
[1]; ECO 200159, alone
  MIC: 4 µg/mL
[1]; ECO 200259, alone
  MIC: 4 µg/mL
[1]; ECO 200344, alone
  MIC: 8 µg/mL
[1]; ECO 260096, alone
  MIC: 16 µg/mL
[1]; ECO 260304, alone
  MIC: 4 µg/mL
[1]; ECO 260508, alone
  MIC: 8 µg/mL
[1]; ECO (strain number on grid row 356, not shown), alone
  MIC: 8 µg/mL
[1]; ECO UFR17, alone
  MIC: 16 µg/mL
[1]; ECO UFR18, alone
  MIC: 8 µg/mL
[1]; ECO UFR19, alone
  MIC: 8 µg/mL
[1]; ECO UFR32, alone
  MIC: 8 µg/mL
[1]; ECO UFR39, alone
  MIC: 8 µg/mL
[1]; ECO UFR41, alone
  MIC: 8 µg/mL
[1]; ECO UFR45, alone
  MIC: 4 µg/mL
[1]; ECO UFR52, alone
  MIC: 32 µg/mL
[1]; ECO UFR61O, alone
  MIC: 8 µg/mL
[1]; ECO UFR62, alone
  MIC: 8 µg/mL
[1]; ECO UFR74, alone
  MIC: 8 µg/mL
[1]; ECO UFR86, alone
  MIC: 16 µg/mL
[1]; ECO UFR174, alone
  MIC: 2 µg/mL
[1]; ECO UFR176, alone
  MIC: 8 µg/mL
[1]; ECO UFR184, alone
  MIC: 4 µg/mL
[1]; ECO UFR208, alone
  MIC: 16 µg/mL
[1]; ECO UFR209, alone
  MIC: 8 µg/mL
[1]; ECO UFR210, alone
  MIC: 4 µg/mL
[1]; ECO UFR211, alone
  MIC: 4 µg/mL
[1]; ECO UFR212, alone
  MIC: 4 µg/mL
[1]; ECO URF20, alone
  MIC: 4 µg/mL
[1]; strain ECO UFR177, compound alone
  MIC: 4 µg/mL
[1]; strain ECO UFR178, compound alone
  MIC: 8 µg/mL
[1]; strain ECO UFR179, compound alone
  MIC: 4 µg/mL
[1]; strain ECO UFR180, compound alone
  MIC: 4 µg/mL
[1]; strain ECO UFR181, compound alone
  MIC: 16 µg/mL
[1]; strain ECO UFR182, compound alone
  MIC: 8 µg/mL
[1]; strain ECO UFR183, compound alone
  MIC: 32 µg/mL
[1]; strain ECO UFR186, compound alone
  MIC: 8 µg/mL
[1]; strain ECO UFR187, compound alone
  MIC: 16 µg/mL
[1]; strain ECO UFR189, compound alone
  MIC: 4 µg/mL
[1]; strain ECO UFR190, compound alone
  MIC: 8 µg/mL
[1]; strain ECO UFR191, compound alone
  MIC: 8 µg/mL
[1]; strain ECO UFR204, compound alone
  MIC: 8 µg/mL
[1]; strain ECO UFR205, compound alone
  MIC: 8 µg/mL
[1]; strain ECO UFR206, compound alone
  MIC: 16 µg/mL
[1]; strain ECO UFR252GO, compound alone
  MIC: 8 µg/mL
[1]; strain ECO UFR255, compound alone
  MIC: 4 µg/mL
[2]; BAA1898, KPN BAA-1898, alone
  MIC: 8 µg/mL
[2]; KPN 6299, alone
  MIC: 16 µg/mL
[2]; KPN 110376, alone
  MIC: 8 µg/mL
[2]; KPN 121206, alone
  MIC: 16 µg/mL
[2]; KPN 131119, alone
  MIC: 8 µg/mL
[2]; KPN 140513, alone
  MIC: 32 µg/mL
[2]; KPN 160143, alone
  MIC: 8 µg/mL
[2]; KPN 190128, alone
  MIC: 16 µg/mL
[2]; KPN 190270, alone
  MIC: 16 µg/mL
[2]; KPN 190425, alone
  MIC: 16 µg/mL
[2]; KPN 190551, alone
  MIC: 4 µg/mL
[2]; KPN 200047, alone
  MIC: 4 µg/mL
[2]; KPN 200327, alone
  MIC: 4 µg/mL
[2]; KPN 260251, alone
  MIC: 16 µg/mL
[2]; KPN 260252, alone
  MIC: 16 µg/mL
[2]; KPN 260376, alone
  MIC: 4 µg/mL
[2]; KPN 270077, alone
  MIC: > 32 µg/mL
[2]; KPN 700603, alone
  MIC: 32 µg/mL
[2]; KPN ARA, alone
  MIC: 8 µg/mL
[2]; KPN LIB, alone
  MIC: 8 µg/mL
[2]; KPN UFR22_O, alone
  MIC: 8 µg/mL
[2]; KPN UFR23, alone
  MIC: 16 µg/mL
[2]; KPN UFR24, alone
  MIC: 16 µg/mL
[2]; KPN UFR25, alone
  MIC: 8 µg/mL
[2]; KPN UFR27, alone
  MIC: 16 µg/mL
[2]; KPN UFR43, alone
  MIC: 8 µg/mL
[2]; KPN UFR46, alone
  MIC: 32 µg/mL
[2]; KPN UFR53, alone
  MIC: 16 µg/mL
[2]; KPN UFR68, alone
  MIC: 16 µg/mL
[2]; KPN UFR76, alone
  MIC: > 32 µg/mL
[2]; KPN UFR77, alone
  MIC: 8 µg/mL
[2]; KPN UFR78, alone
  MIC: 32 µg/mL
[2]; KPN UFR79, alone
  MIC: 16 µg/mL
[2]; KPN UFR80, alone
  MIC: 16 µg/mL
[2]; KPN UFR81, alone
  MIC: 16 µg/mL
[2]; KPN UFR215, alone
  MIC: 32 µg/mL
[2]; KPN UFR216, alone
  MIC: 8 µg/mL
[2]; KPN UFR217, alone
  MIC: 8 µg/mL
[2]; KPN UFR218, alone
  MIC: 4 µg/mL
[2]; KPN UFR222, alone
  MIC: 8 µg/mL
[2]; KPN UFR227O, alone
  MIC: > 32 µg/mL
[2]; strain KPN 140347, compound alone
  MIC: 32 µg/mL
[2]; strain KPN UFR162, compound alone
  MIC: 16 µg/mL
[2]; strain KPN UFR163, compound alone
  MIC: 16 µg/mL
[2]; strain KPN UFR164, compound alone
  MIC: 16 µg/mL
[2]; strain KPN UFR165, compound alone
  MIC: 16 µg/mL
[2]; strain KPN UFR166, compound alone
  MIC: 32 µg/mL
[2]; strain KPN UFR167, compound alone
  MIC: > 32 µg/mL
[2]; strain KPN UFR168, compound alone
  MIC: 16 µg/mL
[2]; strain KPN UFR169, compound alone
  MIC: > 32 µg/mL
[2]; strain KPN UFR170, compound alone
  MIC: 16 µg/mL
[2]; strain KPN UFR171, compound alone
  MIC: 8 µg/mL
[2]; strain KPN UFR172, compound alone
  MIC: 8 µg/mL
[2]; strain KPN UFR229O, compound alone
  MIC: 16 µg/mL
